# Test results taken from US5756763A, “Pyrrolidine derivatives” (Zaidan Hojin Biseibutsu Kagaku Kenkyukai, priority 1993, dated 1998).
# Target: T1, prolyl endopeptidase (Sus scrofa, UniProt P23687)
# T1 construct: swine kidney-derived prolyl endopeptidase; from tissue; host or cells: swine kidney
# Test: Enzyme inhibitory action on swine kidney-derived prolyl endopeptidase (Z-Gly-Pro-β-naphthylamide substrate)
# Type: biochemical
# Details: in vitro, qualitative statement
# Experimental: Using 0.1 mM of benzyolxycarbonylglycylproline-β-naphthylamide as substrate and swine kidney-derived prolyl endopeptidase as enzyme, the enzyme was acted on the substrate at 37° C. for 30 minutes in 0.025 M Tris(hydroxymethyl)methane amine-hydrochloric acid (pH 7.5) solution. Fast Garnet was added to form a color and absorbance was measured at 525 nm. The inhibitory activity is expressed in terms of concentration required for 50% inhibition (IC50).
# T1 sequence (P23687 whole entry): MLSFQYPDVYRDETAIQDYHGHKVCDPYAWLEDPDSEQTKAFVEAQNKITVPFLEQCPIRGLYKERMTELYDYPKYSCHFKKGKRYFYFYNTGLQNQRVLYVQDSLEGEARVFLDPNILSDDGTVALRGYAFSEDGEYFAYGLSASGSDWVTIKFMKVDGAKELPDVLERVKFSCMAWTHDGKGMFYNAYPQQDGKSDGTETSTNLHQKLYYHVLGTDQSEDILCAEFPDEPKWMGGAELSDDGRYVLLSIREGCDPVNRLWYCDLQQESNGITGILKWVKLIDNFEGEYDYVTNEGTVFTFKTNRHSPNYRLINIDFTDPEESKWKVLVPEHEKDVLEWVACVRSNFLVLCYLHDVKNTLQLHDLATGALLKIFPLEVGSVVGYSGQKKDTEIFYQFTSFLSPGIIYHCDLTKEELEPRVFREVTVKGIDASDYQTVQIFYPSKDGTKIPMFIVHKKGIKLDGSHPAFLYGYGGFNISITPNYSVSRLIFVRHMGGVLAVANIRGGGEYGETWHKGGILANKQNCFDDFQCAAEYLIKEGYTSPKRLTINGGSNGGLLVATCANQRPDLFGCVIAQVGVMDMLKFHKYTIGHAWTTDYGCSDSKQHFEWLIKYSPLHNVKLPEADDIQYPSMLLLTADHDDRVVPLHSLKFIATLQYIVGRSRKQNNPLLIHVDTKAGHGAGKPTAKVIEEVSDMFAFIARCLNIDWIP
row,Structure (SMILES),prolyl endopeptidase inhibition activity (in words)
1,"O=C(NC1CCCCC1)C(=O)C1CCCN1C(=O)C(Cc1ccccc1)NC(=O)c1cccc(Oc2ccccc2)c1 (stereo not drawn) [Example 28, N-Cyclohexyl-2-oxo-2-[2-(1-(N-(3-phenoxybenzoyl)phenylalanyl)pyrrolidinyl)]acetamide]",potent inhibition activity on almost the same level
2,"O=C(NC1CCCCCCC1)C(=O)C1CCCN1C(=O)C(Cc1ccccc1)NC(=O)c1cccc(Oc2ccccc2)c1 (stereo not drawn) [Example 113, N-Cyclooctyl-2-oxo-2-[2-(1-(N-(3-phenoxybenzoyl)phenylalanyl)pyrrolidinyl)]acetamide]",potent inhibition activity on almost the same level
3,"O=C(NC1CCCCCC1)C(=O)C1CCCN1C(=O)C(Cc1ccccc1)NC(=O)c1cccc(Oc2ccccc2)c1 (stereo not drawn) [Example 41, N-Cycloheptyl-2-oxo-2-[2-(1-(N-(3-phenoxybenzoyl)-phenylalanyl)pyrrolidinyl)]acetamide]",potent inhibition activity on almost the same level
4,"O=C(NC1CCCC1)C(=O)C1CCCN1C(=O)C(Cc1ccccc1)NC(=O)c1cccc(Oc2ccccc2)c1 (stereo not drawn) [Example 13, N-Cyclopentyl-2-oxo-2-[2-(1-(N-(3-phenoxybenzoyl)phenylalanyl)pyrrolidinyl)]acetamide]",potent inhibition activity on almost the same level

# Same assay, conditions: swine kidney prolyl endopeptidase, 0.1 mM substrate, 37° C., 30 minutes, pH 7.5
row,Structure (SMILES),IC50 [nM]
1,"O=C(NC1CCCCC1)C(=O)C1CCCN1C(=O)C(Cc1ccccc1)NC(=O)c1cccc(Oc2ccccc2)c1 (stereo not drawn) [Example 28, N-Cyclohexyl-2-oxo-2-[2-(1-(N-(3-phenoxybenzoyl)phenylalanyl)pyrrolidinyl)]acetamide]",1.14
2,"O=C(NC1CCCCC1)C(=O)C1CCCN1C(=O)c1cccc(Oc2ccccc2)c1 (stereo not drawn) [Example 76, N-Cyclohexyl-2-oxo-2-[2-(1-(3-phenoxybenzoyl)pyrrolidinyl)]acetamide]",13.8
3,"O=C(NC1CCCCC1)C(=O)C1CCCN1C(=O)C(Cc1ccccc1)NC(=O)c1ccc2ccccc2c1 (stereo not drawn) [Example 22, N-Cyclohexyl-2-oxo-2-[2-(1-(N-(2-naphthoyl)phenylalanyl)pyrrolidinyl)]acetamide]",3.23
4,"O=C(NC1CCCCC1)C(=O)C1CCCN1C(=O)C(Cc1ccccc1)NC(=O)c1ccc2ccccc2n1 (stereo not drawn) [Example 115, N-Cyclohexyl-2-oxo-2-[2-(1-(N-(2-quinolylcarbonyl)phenylalanyl)pyrrolidinyl)]acetamide]",2.09
5,"CC(C)(C)OC(=O)NC(Cc1ccccc1)C(=O)N1CCCC1C(=O)C(=O)NC1CCCCC1 (stereo not drawn) [Example 15, N-Cyclohexyl-2-oxo-2-[2-(1-(N-t-butoxycarbonylphenylalanyl)pyrrolidinyl)]acetamide]",3.18
6,"O=C(NC1CCCCCCC1)C(=O)C1CCCN1C(=O)C(Cc1ccccc1)NC(=O)c1cccc(Oc2ccccc2)c1 (stereo not drawn) [Example 113, N-Cyclooctyl-2-oxo-2-[2-(1-(N-(3-phenoxybenzoyl)phenylalanyl)pyrrolidinyl)]acetamide]",1.59
7,"O=C(C=Cc1ccco1)NC(Cc1ccccc1)C(=O)N1CCCC1C(=O)C(=O)NC1CCCCC1 (stereo not drawn) [Example 31, N-Cyclohexyl-2-oxo-2-[2-(1-(N-(3-(2-furyl)acryloyl)-phenylalanyl)pyrrolidinyl)]acetamide]",6.31
8,"O=C(NC1CCCCCC1)C(=O)C1CCCN1C(=O)c1ccc2ccccc2c1 (stereo not drawn) [Example 78, N-Cycloheptyl-2-oxo-2-[2-(1-(2-naphthoyl)pyrrolidinyl)]acetamide]",23.4
9,"O=C(NC1CCCCCC1)C(=O)C1CCCN1C(=O)C(Cc1ccccc1)NC(=O)c1cccc(Oc2ccccc2)c1 (stereo not drawn) [Example 41, N-Cycloheptyl-2-oxo-2-[2-(1-(N-(3-phenoxybenzoyl)-phenylalanyl)pyrrolidinyl)]acetamide]",1.38
10,"O=C(CSc1ccccc1)NC(Cc1ccccc1)C(=O)N1CCCC1C(=O)C(=O)NC1CCCCC1 (stereo not drawn) [Example 47, N-Cyclohexyl-2-oxo-2-[2-(1-(N-(phenylthioacetyl)-phenylalanyl)pyrrolidinyl)]acetamide]",1.53
11,"O=C(NCc1nc2ccccc2[nH]1)C(=O)C1CCCN1C(=O)c1ccc(Cl)cc1 (stereo not drawn) [Example 93, N-(2-Benzimidazolylmethyl)-2-oxo-2-[2-(1-(4-chlorobenzoyl)pyrrolidinyl)]acetamide]",134
12,"O=C(NC1CCCCC1)C(=O)C1CCCN1C(=O)C(Cc1ccccc1)NC(=O)c1cccs1 (stereo not drawn) [Example 18, N-Cyclohexyl-2-oxo-2-[2-(1-(N-(2-thenoyl)phenylalanyl)pyrrolidinyl)]acetamide]",2.28
13,"O=C(NC1CCCCC1)C(=O)C1CCCN1C(=O)C1CCCN1C(=O)CSc1ccncc1 (stereo not drawn) [Example 55, N-Cyclohexyl-2-oxo-2-[2-(1-(N-(4-pyridylthioacetyl)prolyl)pyrrolidinyl)]acetamide]",1.69
14,"CC(C)C(NC(=O)OCc1ccccc1)C(=O)N1CCCC1C(=O)C(=O)NC1CCCCC1 (stereo not drawn) [Example 4, N-cyclohexyl-2-oxo-2-[2-(1-(N-benzyloxycarbonylvalyl)pyrrolidinyl)]acetamide]",1.09
15,"O=C(NC1CCCCC1)C(=O)C1CCCN1C(=O)C(Cc1ccccc1)NC(=O)c1ccncc1 (stereo not drawn) [Example 49, N-Cyclohexyl-2-oxo-2-[2-(1-(N-(isonicotinonyl)-phenylalanyl)pyrrolidinyl)]acetamide]",6.5
16,"O=C(NC(Cc1ccccc1)C(=O)N1CCCC1C(=O)C(=O)NC1CCCCC1)OCc1ccccc1 (stereo not drawn) [Example 45, N-Cyclohexyl-2-oxo-2-[2-(1-(N-benzyloxycarbonylphenylalanyl)pyrrolidinyl)]acetamide]",2.37
17,"O=C(NC1CCCCC1)C(=O)C1CCCN1C(=O)c1ccc2ccccc2n1 (stereo not drawn) [Example 66, N-Cyclohexyl-2-oxo-2-[2-(1-(2-quinolylcarbonyl)pyrrolidinyl)]acetamide]",26.4
18,"O=C(NC1CCCCC1)C(=O)C1CCCN1C(=O)C=Cc1cccnc1 (stereo not drawn) [Example 72, N-Cyclohexyl-2-oxo-2-[2-(1-(3-(3-pyridyl)acryloyl)pyrrolidinyl)]acetamide]",239
19,"O=C(Cc1ccccn1)NC(Cc1ccccc1)C(=O)N1CCCC1C(=O)C(=O)NC1CCCCC1 (stereo not drawn) [Example 24, N-Cyclohexyl-2-oxo-2-[2-(1-(N-(2-pyridyl)acetylphenylalanyl)pyrrolidinyl)]acetamide]",2.24

row,Structure (SMILES),IC50 [nM]
1,"O=C[C@@H]1CCCN1C(=O)[C@H](Cc1ccccc1)NC(=O)c1cccc(Oc2ccccc2)c1 [Reference Example 4, N-(N-(3-Phenoxybenzoyl)-L-phenylalanyl)-L-prolinal, reference compound]",249
2,"CC(=O)NC(Cc1ccccc1)C(=O)N1CCCC1C(=O)C(=O)NC1CCCCC1 (stereo not drawn) [Example 118, N-Cyclohexyl-2-oxo-2-[2-(1-(N-acetylphenylalanyl)pyrrolidinyl)]acetamide]",2.03
3,"CC(C)C(NC(=O)c1cccc(Oc2ccccc2)c1)C(=O)N1CCCC1C(=O)C(=O)NC1CCCCC1 (stereo not drawn) [Example 7, N-cyclohexyl-2-oxo-2-[2-(1-(N-(3-phenoxybenzoyl)valyl)pyrrolidinyl)]acetamide]",0.962
4,"O=C(NC1CCCCC1)C(=O)C1CCCN1C(=O)c1ccc(CN2CCCCC2)cc1 (stereo not drawn) [Example 86, N-Cyclohexyl-2-oxo-2-[2-(1-(4-piperidinomethylbenzoyl)pyrrolidinyl)]acetamide]",82.2
5,"O=C(NC1CCCCC1)C(=O)C1CCCN1C(=O)C(Cc1ccccc1)NC(=O)c1ccccc1 (stereo not drawn) [Example 43, N-Cyclohexyl-2-oxo-2-[2-(1-(N-benzoylphenylalanyl)pyrrolidinyl)]acetamide]",1.89
6,"O=C(NC1CCCC1)C(=O)C1CCCN1C(=O)C(Cc1ccccc1)NC(=O)c1cccc(Oc2ccccc2)c1 (stereo not drawn) [Example 13, N-Cyclopentyl-2-oxo-2-[2-(1-(N-(3-phenoxybenzoyl)phenylalanyl)pyrrolidinyl)]acetamide]",1.48
7,"O=C(NC1CCCCC1)C(=O)C1CCCN1C(=O)C=Cc1ccc(Cl)cc1 (stereo not drawn) [Example 70, N-Cyclohexyl-2-oxo-2-[2-(1-(3-(4-chlorophenyl)acryloyl)pyrrolidinyl)]acetamide]",111
8,"O=C(COc1ccccc1)NC(Cc1ccccc1)C(=O)N1CCCC1C(=O)C(=O)NC1CCCCC1 (stereo not drawn) [Example 20, N-Cyclohexyl-2-oxo-2-[2-(1-(N-phenoxyacetylphenylalanyl)pyrrolidinyl)]acetamide]",1.58
9,"O=C(NC1CCCCC1)C(=O)C1CCCN1C(=O)CN(Cc1ccccc1)C(=O)c1ccncc1 (stereo not drawn) [Example 60, N-Cyclohexyl-2-oxo-2-[2-(1-(N-isonicotinonyl-N-benzylglycyl)pyrrolidinyl)]acetamide]",8.81
10,"O=C(CSc1ccncc1)NC(Cc1ccccc1)C(=O)N1CCCC1C(=O)C(=O)NC1CCCCC1 (stereo not drawn) [Example 51, N-Cyclohexyl-2-oxo-2-[2-(1-(N-(4-pyridylthioacetyl)-phenylalanyl)pyrrolidinyl)]acetamide]",2.68
11,"O=C(NC1CCCCC1)C(=O)C1CCCN1C(=O)C(CC1CCCCC1)NC(=O)c1ccc2ccccc2n1 (stereo not drawn) [Example 124, N-Cyclohexyl-2-oxo-2-[2-(1-(N-(2-quinolylcarbonyl)-β-cyclohexylalanyl)pyrrolidinyl)]acetamide]",3.75
12,"O=C(NC1CCCCC1)C(=O)C1CCCN1C(=O)C(Cc1ccccc1)NC(=O)c1cccnc1 (stereo not drawn) [Example 53, N-Cyclohexyl-2-oxo-2-[2-(1-(N-(nicotinonyl)phenylalanyl)pyrrolidinyl)]acetamide]",4.2
13,"O=C(NCCc1ccccn1)C(=O)C1CCCN1C(=O)c1ccc(Cl)cc1 (stereo not drawn) [Example 97, N-(2-(2-Pyridyl)ethyl)-2-oxo-2-[2-(1-(4-chlorobenzoyl)pyrrolidinyl)]acetamide]",90.7
14,"O=C(NCCN1CCOCC1)C(=O)C1CCCN1C(=O)c1ccc(Cl)cc1 (stereo not drawn) [Example 95, N-(2-Morpholinoethyl)-2-oxo-2-[2-(1-(4-chlorobenzoyl)-pyrrolidinyl)]acetamide]",168
15,"O=C(NC1CCCCC1)C(=O)C1CCCN1C(=O)c1ccccn1 (stereo not drawn) [Example 74, N-Cyclohexyl-2-oxo-2-[2-(1-(2-pyridylcarbonyl)pyrrolidinyl)]acetamide]",97.1
16,O=C(NC1CCCCC1)C(=O)C1CCCN1C(=O)c1ccc(Cn2ccnc2)cc1 (stereo not drawn) [Example 88],132
17,"CC(C)(C)OC(=O)N1c2ccccc2CC1C(=O)N1CCCC1C(=O)C(=O)NC1CCCCC1 (stereo not drawn) [Example 126, N-Cyclohexyl-2-oxo-2-[2-(1-(1-t-butoxycarbonyl-2,3-dihydroindole-2-carbonyl)pyrrolidinyl)]acetamide]",1.7
18,"O=C(NC1CCCCC1)C(=O)C1CCCN1C(=O)[C@H](Cc1ccccc1)NC(=O)c1ccc(CN2CCOCC2)cc1 (stereo partly drawn) [Example 57, N-Cyclohexyl-2-oxo-2-[2-(1-(N-(4-morpholinomethylbenzoyl)phenylalanyl)pyrrolidinyl)]acetamide]",9.4
19,"O=C(NC1CCCCC1)C(=O)C1CCCN1C(=O)C=Cc1ccccc1 (stereo not drawn) [Example 68, N-Cyclohexyl-2-oxo-2-[2-(1-cinnamoylpyrrolidinyl)]acetamide]",48
